Like-named read-outs stand apart in the source and are kept apart here.
Key:
HRV3C = HRV3C (Human rhinovirus 14, UniProt P03303); test: HRV3C protease assay (duplex, SAMDI-MS); format: biochemical, HRV; details: 30 mins preincubation
Outline: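 Readout is SAMDI mass spectrometry: biotinylated substrates, products and internal standards were immobilized on neutravidin monolayers and product formation taken as the AUC ratio to internal standard. Reactions ran 30 min at ambient temperature after 30 min compound preincubation, in duplex with 3CLpro. IC50 values came from four-parameter curve fitting.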

[1] = test system: human beta-coronavirus OC43; test: microbe, parasite or virus in culture; format: cell-based; details: Betacoronavirus 1, OC43, HeLa, 144 h
[2] = Cytotoxicity plates without OC43 virus (cell-titer-glo); format: cell-based, human; details: human; HeLa cells without OC43 virus, class symbols
Outline: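 Run as a virus-free counterpart of the OC43 cytopathic-effect assay. Attached HeLa cells received compound dilutions in EMEM with 2% FBS and were kept 6 days at 33 °C. Cell viability was then measured by CellTiter-Glo luminescence.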

[3] = test system: SARS-CoV-2-GHB-03021/2020; test: SARS-CoV-2 Infection Model in Huh7 Cells; format: cell-based; details: Severe acute respiratory syndrome coronavirus 2, Huh-7, 96 h, SARS-CoV-2, day 4 p.i., MTS
[4] = test system: SARS-CoV-2-GHB-03021/2020; test: microbe, parasite or virus in culture; format: cell-based; details: Severe acute respiratory syndrome coronavirus 2, Vero C1008, 96 h; read-out: VeroE6 + CP (EC50)
human cathepsin L = molecular target: T1, human cathepsin L (Homo sapiens, UniProt P07711); test: cathepsin L assay; format: biochemical; details: 10 pM human cathepsin L, Z-FR-AMC 2 μM, class symbols
T1 construct: purchased R&D Systems
Outline: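 Reactions began by adding 2 μM (final) Z-FR-AMC substrate to 10 pM human cathepsin L that had been preincubated 30 min with inhibitor. Kinetic AMC fluorescence at 355/460 nm over 30 min at 2-min intervals; four-parameter fitting gave IC50 values.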

in vitro [5] = details: human
in vitro [6] = details: African green monkey, VeroE6 + CP (CC50), Vero E6-eGFP cells with CP-100356, absence of virus, MTS
3CLpro = 3CLpro (Severe acute respiratory syndrome coronavirus 2, UniProt P0DTD1); test: SARS-CoV-2 3CLpro protease assay (duplex, SAMDI-MS); format: biochemical; design: For the duplex assay, 3CLpro and HRV3C was added; details: 30 mins preincubation, class symbols
[7] = HRV3C, class symbols, read-out: HRV IC50
[8] = OC43 in HeLa cells, 6 days at 33° C., class symbols, read-out: EC50
[9] = 3CLpro, read-out: SARS-Cov-2 IC50
[10] = HRV3C, bound, read-out: HRV IC50

COc1cccc2[nH]c(C(=O)N3C[C@@H]4CCC[C@@H]4[C@H]3C(=O)N[C@@H](C[C@@H]3CCNC3=O)C(=O)C(=O)NCCOCc3ccccc3)cc12 [Compound 101]
IC50 (HRV3C; [7]): 0.2 to 2 µM
EC50 [1, 8]: 0.1 to 1 µM
CC50 at 6 days [2]: > 10 µM
EC50 ([3]; class symbols): 1 to 10 µM
EC50 [4]: 1 to 10 µM
IC50 (human cathepsin L): ≥ 10 µM
CC50 (in vitro [5]): > 50 µM
CC50 (in vitro [6]; class symbols): > 10 µM
IC50 (3CLpro; [9]): < 0.02 µM

COc1ccc(F)c2[nH]c(C(=O)N3C[C@@H]4CCC[C@@H]4[C@H]3C(=O)N[C@@H](C[C@@H]3CCNC3=O)C(=O)CO)cc12 [Compound 65, (1S,3aR,6aS)-2-(7-fluoro-4-methoxy-1H-indole-2-carbonyl)-N-[(2S)-4-hydroxy-3-oxo-1-[(3S)-2-oxopyrrolidin-3-yl]butan-2-yl]-hexahydro-1H-cyclopenta[c]pyrrole-1-carboxamide]
IC50 (HRV3C; [7]): 0.2 to 2 µM
EC50 [1, 8]: 0.1 to 1 µM
CC50 at 6 days [2]: > 10 µM
EC50 ([3]; class symbols): < 1 µM
EC50 [4]: < 1 µM
IC50 (human cathepsin L): ≥ 10 µM
CC50 (in vitro [5]): > 100 µM
CC50 (in vitro [6]; class symbols): > 10 µM
IC50 (3CLpro; [9]): < 0.02 µM

COc1cccc2[nH]c(C(=O)N3C[C@@H]4CCC[C@@H]4[C@H]3C(=O)N[C@@H](C[C@@H]3CCNC3=O)C(=O)CO)c(F)c12 [Compound 151, (1S,3aR,6aS)-2-(3-fluoro-4-methoxy-1H-indole-2-carbonyl)-N—((S)-4-hydroxy-3-oxo-1-((S)-2-oxopyrrolidin-3-yl)butan-2-yl)octahydrocyclopenta[c]pyrrole-1-carboxamide]
IC50 (HRV3C; HRV IC50, HRV3C, bound): > 10 µM
EC50 [1]: 1 to 10 µM
CC50 at 6 days [2]: > 10 µM
EC50 ([3]; class symbols): 1 to 10 µM
EC50 [4]: 10 to 100 µM
IC50 (human cathepsin L): ≥ 10 µM
CC50 (in vitro [5]): > 50 µM
CC50 (in vitro [6]; numeric bounds): > 50 µM
IC50 (3CLpro; [9]): 0.02 to 0.2 µM

COc1cccc2[nH]c(C(=O)N3C[C@H]4[C@@H]([C@H]3C(=O)N[C@@H](C[C@@H]3CCNC3=O)C(=O)C(N)=O)C4(C)C)cc12 [Compound 51, (3S)-3-{[(1R,2S,5S)-3-(4-methoxy-1H-indole-2-carbonyl)-6,6-dimethyl-3-azabicyclo[3.1.0]hexan-2-yl]formamido}-2-oxo-4-[(3S)-2-oxopyrrolidin-3-yl]butanamide]
IC50 (HRV3C; [7]): 0.2 to 2 µM
EC50 [1, 8]: 1 to 10 µM
CC50 at 6 days [2]: > 10 µM
EC50 ([3]; numeric bounds): > 100 µM
EC50 [4]: > 100 µM
IC50 (human cathepsin L): 0.1 to 1 µM
CC50 (in vitro [5]): > 100 µM
CC50 (in vitro [6]; numeric bounds): > 100 µM
IC50 (3CLpro; [9]): < 0.02 µM

O=C1NCCC[C@H]1C[C@H](NC(=O)[C@@H]1[C@H]2CCC[C@H]2CN1C(=O)c1cc2ccccc2[nH]1)C(O)S(=O)(=O)O (stereo partly drawn) [Compound 58, sodium (2S)-2-{[(1S,3aR,6aS)-2-(1H-indole-2-carbonyl)-hexahydro-1H-cyclopenta[c]pyrrol-1-yl]formamido}-1-hydroxy-3-[(3S)-2-oxopiperidin-3-yl]propane-1-sulfonate]
IC50 (HRV3C; HRV IC50, HRV3C, class symbols): 0.02 to 0.2 µM
EC50 [1, 8]: 0.1 to 1 µM
CC50 at 6 days [2]: > 10 µM
EC50 ([3]; class symbols): < 1 µM
EC50 [4]: < 1 µM
IC50 (human cathepsin L): 1 to 10 µM
CC50 (in vitro [5]): > 100 µM
CC50 (in vitro [6]; numeric bounds): > 100 µM
IC50 (3CLpro; [9]): < 0.02 µM

COc1cccc2[nH]c(C(=O)N3C[C@@H]4CCC[C@@H]4[C@H]3C(=O)N[C@@H](C[C@@H]3CCNC3=O)C(=O)C(=O)NCCOc3ccccc3)cc12 [Compound 134]
IC50 (HRV3C; [7]): 2 to 20 µM
EC50 [1, 8]: 0.1 to 1 µM
CC50 at 6 days [2]: > 10 µM
EC50 ([3]; class symbols): 1 to 10 µM
EC50 [4]: 1 to 10 µM
IC50 (human cathepsin L): ≥ 10 µM
CC50 (in vitro [5]): > 50 µM
CC50 (in vitro [6]; numeric bounds): > 50 µM
IC50 (3CLpro; [9]): < 0.02 µM

COc1cccc2[nH]c(C(=O)N3C[C@@H]4CCC[C@@H]4[C@H]3C(=O)N[C@@H](CC3CC(C)(C)NC3=O)C(=O)COCc3ccccc3)cc12 (relative stereo) [Compound 70A_1, (1S,3aR,6aS)—N-[(2S)-4-(benzyloxy)-1-[(3R*)-5,5-dimethyl-2-oxopyrrolidin-3-yl]-3-oxobutan-2-yl]-2-(4-methoxy-1H-indole-2-carbonyl)-hexahydro-1H-cyclopenta[c]pyrrole-1-carboxamide]
IC50 (HRV3C; [7]): 2 to 20 µM
EC50 [1, 8]: < 0.1 µM
CC50 at 6 days [2]: > 10 µM
EC50 ([3]; class symbols): 1 to 10 µM
EC50 [4]: 1 to 10 µM
IC50 (human cathepsin L): ≥ 10 µM
CC50 (in vitro [5]): > 10 µM
CC50 (in vitro [6]; class symbols): > 10 µM
IC50 (3CLpro; [9]): 0.02 to 0.2 µM

COc1cccc2[nH]c(C(=O)N3C[C@@H]4CCC[C@@H]4[C@H]3C(=O)NC(C[C@@H]3CCCNC3=O)C(=O)C(=O)NC3CC3)cc12 (stereo partly drawn) [Compound 55, 3-{[(1S,3aR,6aS)-2-(4-methoxy-1H-indole-2-carbonyl)-hexahydro-1H-cyclopenta[c]pyrrol-1-yl]formamido}-N-cyclopropyl-2-oxo-4-[(3S)-2-oxopiperidin-3-yl]butanamide]
IC50 (HRV3C; [7]): 0.02 to 0.2 µM
EC50 [1, 8]: 0.1 to 1 µM
CC50 at 6 days [2]: > 10 µM
EC50 ([3]; class symbols): 1 to 10 µM
EC50 [4]: 1 to 10 µM
IC50 (human cathepsin L): ≥ 10 µM
CC50 (in vitro [5]): > 100 µM
CC50 (in vitro [6]; numeric bounds): > 100 µM
IC50 (3CLpro; [9]): < 0.02 µM

COc1cccc2[nH]c(C(=O)N3C[C@@H]4CCC[C@@H]4[C@H]3C(=O)N[C@@H](CC3CC(C)(C)NC3=O)C(=O)C(=O)NC3CC3)cc12 (single isomer, unassigned) [Compound 95, (3S)-3-{[(1S,3aR,6aS)-2-(4-methoxy-1H-indole-2-carbonyl)-hexahydro-1H-cyclopenta[c]pyrrol-1-yl]formamido}-N-cyclopropyl-4-[(3R*)-5,5-dimethyl-2-oxopyrrolidin-3-yl]-2-oxobutanamide]
IC50 (HRV3C; HRV IC50, HRV3C, class symbols): 0.2 to 2 µM
EC50 [1, 8]: 0.1 to 1 µM
CC50 at 6 days [2]: > 10 µM
EC50 ([3]; class symbols): 1 to 10 µM
EC50 [4]: 1 to 10 µM
IC50 (human cathepsin L): ≥ 10 µM
CC50 (in vitro [5]): > 50 µM
CC50 (in vitro [6]; numeric bounds): > 50 µM
IC50 (3CLpro; [9]): 0.02 to 0.2 µM

O=C1NCC[C@H]1C[C@H](NC(=O)[C@@H]1[C@H]2CCC[C@H]2CN1C(=O)c1cc2c(Cl)ccc(Oc3ccccc3)c2[nH]1)C(=O)CO [Compound 137, (1S,3aR,6aS)-2-(4-chloro-7-phenoxy-1H-indole-2-carbonyl)-N-[(2S)-4-hydroxy-3-oxo-1-[(3S)-2-oxopyrrolidin-3-yl]butan-2-yl]-hexahydro-1H-cyclopenta[c]pyrrole-1-carboxamide]
IC50 (HRV3C; HRV IC50, HRV3C, bound): > 10 µM
EC50 [1, 8]: < 0.1 µM
CC50 at 6 days [2]: > 10 µM
EC50 ([3]; class symbols): < 1 µM
EC50 [4]: 1 to 10 µM
IC50 (human cathepsin L): ≥ 10 µM
CC50 (in vitro [5]): > 10 µM
CC50 (in vitro [6]; numeric bounds): > 50 µM
IC50 (3CLpro; SARS-Cov-2 IC50, 3CLpro): 0.02 to 0.2 µM

COc1cccc2[nH]c(C(=O)N3C[C@@H]4CCC[C@@H]4[C@H]3C(=O)N[C@@H](C[C@@H]3CCNC3=O)C(=O)c3nc4ccccc4s3)cc12 [Compound 50, (1S,3aR,6aS)—N-[(2S)-1-(1,3-benzothiazol-2-yl)-1-oxo-3-[(3S)-2-oxopyrrolidin-3-yl]propan-2-yl]-2-(4-methoxy-1H-indole-2-carbonyl)-hexahydro-1H-cyclopenta[c]pyrrole-1-carboxamide]
IC50 (HRV3C; [10]): > 10 µM
EC50 [1, 8]: 0.1 to 1 µM
CC50 at 6 days [2]: > 10 µM
EC50 ([3]; class symbols): 1 to 10 µM
EC50 [4]: 1 to 10 µM
IC50 (human cathepsin L): ≥ 10 µM
CC50 (in vitro [5]): > 10 µM
CC50 (in vitro [6]; numeric bounds): > 100 µM
IC50 (3CLpro; [9]): 0.02 to 0.2 µM

O=C1NCC[C@H]1C[C@H](NC(=O)[C@@H]1[C@H]2CCC[C@H]2CN1C(=O)c1cc2c(Cl)cc(Cl)c(F)c2[nH]1)C(=O)CO [Compound 160, (1S,3aR,6aS)-2-(4,6-dichloro-7-fluoro-1H-indole-2-carbonyl)-N—((S)-4-hydroxy-3-oxo-1-((S)-2-oxopyrrolidin-3-yl)butan-2-yl)octahydrocyclopenta[c]pyrrole-1-carboxamide]
IC50 (HRV3C; [10]): > 10 µM
EC50 [1, 8]: 0.1 to 1 µM
CC50 at 6 days [2]: > 10 µM
EC50 ([3]; class symbols): < 1 µM
EC50 [4]: < 1 µM
IC50 (human cathepsin L): ≥ 10 µM
CC50 (in vitro [5]): > 10 µM
CC50 (in vitro [6]; numeric bounds): > 50 µM
IC50 (3CLpro; [9]): < 0.02 µM

COc1cccc2[nH]c(C(=O)N3C[C@@H]4CCC[C@@H]4[C@H]3C(=O)N[C@@H](C[C@@H]3CCCNC3=O)C(=O)CO)cc12 [Compound 41, (1S,3aR,6aS)—N-[(2S)-4-hydroxy-3-oxo-1-[(3S)-2-oxopiperidin-3-yl]butan-2-yl]-2-(4-methoxy-1H-indole-2-carbonyl)-hexahydro-1H-cyclopenta[c]pyrrole-1-carboxamide]
IC50 (HRV3C; [10]): > 10 µM
EC50 [1, 8]: < 0.1 µM
CC50 at 6 days [2]: > 10 µM
EC50 ([3]; class symbols): 1 to 10 µM
EC50 [4]: 1 to 10 µM
IC50 (human cathepsin L): ≥ 10 µM
CC50 (in vitro [5]): > 100 µM
CC50 (in vitro [6]; numeric bounds): > 100 µM
